Article PMC9849758, “Chemically diverse activity-based probes with unexpected inhibitory mechanisms targeting trypsin-like serine proteases” (Frontiers in Chemistry, 2023)
Where two headings read alike, the source gives them in different places.

How the values were obtained:
Type in all cases: biochemical
[1] = target: T1, Trypsin-3 (Homo sapiens, UniProt P35030); assay: Kinetic progress curves (kapp, K1, KI*, mechanism); design: purchased R&D; conditions: for Ki / Trypsin-3 kapp: mean ± SD; for Trypsin-3 kapp: apparent second-order rate constant from progress curves; for Trypsin-3 mechanism of inhibition: defined by the progress curves: slow-binding (Rev.) or irreversible (Irrev.)
T1 sequence (P35030 1-304): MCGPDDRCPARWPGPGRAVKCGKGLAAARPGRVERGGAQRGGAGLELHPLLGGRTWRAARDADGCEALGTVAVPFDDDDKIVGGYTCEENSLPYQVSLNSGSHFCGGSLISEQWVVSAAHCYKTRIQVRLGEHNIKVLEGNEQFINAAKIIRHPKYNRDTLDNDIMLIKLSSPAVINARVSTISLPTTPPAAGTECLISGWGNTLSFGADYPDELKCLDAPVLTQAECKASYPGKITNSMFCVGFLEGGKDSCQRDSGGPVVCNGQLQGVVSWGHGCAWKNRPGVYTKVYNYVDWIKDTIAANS
Description: (§1) Because the compounds described in this paper were previously described as irreversible inhibitors, the IC50 value is inversely correlated with the second-order rate constant of inactivation. For a simple pseudo-first-order inactivation process, the activity after incubation with inhibitor (vi) varies with the inhibitor concentration (i), as described in the following equation: vi=v0·e^−kit where v0 is the activity in the absence of an inhibitor, k is the second-order rate constant of inactivation, and t is the time. The inactivation rate constant was determined from the time course of inhibition.
(§2) Kinetic assays were performed in the following manner. The inhibitor was mixed with the substrate, and the buffer solution with the enzyme was added at the time zero. The progress curves show the release of pNA or AMC as a function of time. Initially, no inhibitor is bound to the enzyme, and the tangent to the progress curve (dA/dt) is proportional to the free enzyme concentration. The free enzyme concentration decreases over time due to inhibitor binding kinetics, as described above. Progress curves were recorded in pseudo-first-order conditions ([I]0>>[E]0) and with less than 10% conversion of the substrate during the entire time course. In these conditions, dA/dt decreases exponentially with time. The progress curves were fitted with the integrated rate equation with GraFit7 to yield a value for kobs, a pseudo-first-order rate constant. At=Ao+vs∙t+vi−vs∙1−e^−kobs∙t/kobs where At is the absorbance at time t, A0 is the absorbance at time zero, vi is the initial rate and vs is the velocity at the steady-state.
(§3) The apparent second-order rate constant (kapp) was calculated from the slope of the linear part of the plot of kobs vs. the inhibitor concentration ([I]0). In the case of competition between the inhibitor and the substrate, kapp is smaller than the “real” second-order rate constant k discussed above because a certain fraction of the enzyme is present as an enzyme-substrate complex. kapp depends on the substrate concentration used in the experiment, as described by [Lambeir et al. (1996)].
(§4) The apparent equilibrium constants were obtained from the following equations, vi/vo=1/1+I/K1; vS/vo=1/1+I/KI* where vi is the initial rate, vs is the steady-state velocity and vo is the uninhibited initial rate.

[2] = target: T2, CatG (Homo sapiens, UniProt P08311); assay: Kinetic progress curves (kapp, mechanism); design: Cathepsin G (cathepsin G human neutrophil, Sigma-Aldrich); purchased Sigma-Aldrich; host or cells: human neutrophil; conditions: for CatG mechanism of inhibition: defined by the progress curves: slow-binding (Rev.) or irreversible (Irrev.); for CatG kapp: apparent second-order rate constant from progress curves, mean ± SD
T2 sequence (P08311 21-255): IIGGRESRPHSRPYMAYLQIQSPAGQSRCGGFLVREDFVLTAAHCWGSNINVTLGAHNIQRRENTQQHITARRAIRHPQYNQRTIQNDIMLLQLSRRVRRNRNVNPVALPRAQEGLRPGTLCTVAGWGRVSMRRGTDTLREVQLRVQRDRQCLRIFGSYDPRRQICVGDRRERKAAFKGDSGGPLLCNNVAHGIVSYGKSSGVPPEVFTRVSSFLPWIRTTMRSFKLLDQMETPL
Description: as §1, §2, §3, §4

[3] = target: T3, Cathepsin G (cathepsin G human neutrophil) (Homo sapiens, UniProt P08311); assay: IC50 determination, spectrophotometric protease assay
T3 construct: Cathepsin G (cathepsin G human neutrophil, Sigma-Aldrich); purchased Sigma-Aldrich; host or cells: human neutrophil
T3 sequence (P08311 21-255): T2 sequence (P08311 21-255)
Description: (§5) The IC50 values were determined using a spectrophotometric assay. All the experiments were conducted in duplicate. The readout consisted of evaluating the protease-mediated release of the chromophore para-nitroaniline (pNA) or fluorophore 7-amino-4-methyl coumarin (AMC) moieties from the respective substrates. Enzymatic activity was measured for 30 min at 37°C. All compounds were initially screened at three concentrations (10, 1, and .1 μM) to estimate the range of the IC50 value. Those which were able to reduce protease activity by at least 50% at a concentration of 10 μM were submitted to an exact IC50 determination. […] A third independent experiment was performed when the standard deviation of the two independent experiments was higher than […]. IC50 values were obtained by fitting the data with the four-parameter logistics equation using GraphPad Prism 9.
(§6) The conditions for each protease are described as follows, the concentration of substrate used was at the corresponding Km.

[4] = target: T4, TLCK-treated pancreatic bovine chymotrypsin (Bos taurus, UniProt P00766); assay: as above
T4 construct: TLCK-treated pancreatic bovine chymotrypsin (Sigma-Aldrich); purchased Sigma-Aldrich; host or cells: bovine pancreas
Description: as §5, §6

[5] = target: T5, Trypsin-3 (recombinant trypsin-3) (Homo sapiens, UniProt P35030); assay: as above
T5 construct: purchased R&D
T5 sequence (P35030 1-304): T1 sequence (P35030 1-304)
Description: as §5, §6

[6] = target: T6, uPA (recombinant urokinase plasminogen activator) (Homo sapiens, UniProt P00749); assay: as above
T6 construct: purchased HYPHEN BioMed
Description: as §5, §6

[7] = target: T7, β-tryptase (recombinant tryptase β-2) (Homo sapiens, UniProt P20231); assay: as above
T7 construct: purchased EnzoLife Sciences
Description: as §5, §6

[8] = target: T8, Thrombin (recombinant thrombin) (Homo sapiens, UniProt P00734); assay: as above
T8 construct: purchased R&D
Description: as §5, §6

[9] = Trypsin-3 K1, apparent equilibrium constant of the first step of slow-binding
[10] = Trypsin-3 KI*, apparent equilibrium constant of the overall process
[11] = read-out: CatG IC50, desthiobiotin probes, 15 min preincubation at 37°C, mean ± SD
[12] = read-out: ChTryp IC50, desthiobiotin probes, 15 min preincubation at 37°C, mean ± SD
[13] = read-out: Trypsin-3 IC50, desthiobiotin probes, 15 min preincubation at 37°C, mean ± SD
[14] = read-out: uPA IC50, desthiobiotin probes, 15 min preincubation at 37°C, mean ± SD
[15] = read-out: β-tryptase IC50, desthiobiotin probes, 15 min preincubation at 37°C, mean ± SD
[16] = read-out: Thrombin IC50, desthiobiotin probes, 15 min preincubation at 37°C, mean ± SD

T7 sequence (P20231 31-275): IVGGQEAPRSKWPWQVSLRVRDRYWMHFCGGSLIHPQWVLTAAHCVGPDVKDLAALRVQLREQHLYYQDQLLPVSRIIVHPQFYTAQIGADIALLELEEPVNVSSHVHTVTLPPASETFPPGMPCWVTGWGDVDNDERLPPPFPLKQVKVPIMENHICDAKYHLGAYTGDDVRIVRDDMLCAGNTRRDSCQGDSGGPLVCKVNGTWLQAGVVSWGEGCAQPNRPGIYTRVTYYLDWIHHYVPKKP

SMILES: CC(=O)Nc1ccc(OP(=O)(Oc2ccc(NC(C)=O)cc2)C(Cc2ccc(NC(=N)N)cc2)NC(=O)OCCCc2cn(CCOCCOCCOCCNC(=O)CCCCC[C@H]3NC(=O)N[C@H]3C)nn2)cc1 (some centres unmarked) [52b]
- Ki [1, 9]: 17 ± 0.5 nM
- Ki [1, 10]: 1 nM
- Trypsin-3 kapp [1]: 86 × 10^3 ± 8250 M^−1 s^−1
- Trypsin-3 mechanism of inhibition [1]: Rev.
- CatG mechanism of inhibition [2]: * ^d Rev.
- IC50 [3]: 50 ± 7 nM
- IC50 [4]: > 10000 nM
- IC50 [5]: 10 ± 1 nM
- IC50 [6]: 10 ± 3 nM
- IC50 [7]: 70 ± 3 nM
- IC50 [8]: 760 ± 20 nM

SMILES: C#CCCCOC(=O)NC(Cc1ccc(NC(=N)N)cc1)P(=O)(Oc1ccc(Cl)cc1)Oc1ccc(Cl)cc1 (centres unmarked) [36b]
- Ki [1, 9]: 8 ± 0.8 nM
- Ki [1, 10]: 1 ± 0.1 nM
- Trypsin-3 kapp [1]: 29 × 10^3 ± 6499 M^−1 s^−1
- Trypsin-3 mechanism of inhibition [1]: Rev.
- CatG mechanism of inhibition [2]: * ^d Rev.
- IC50 [3]: 340 ± 8 nM
- IC50 [4]: 3230 ± 1210 nM
- IC50 [5]: < 1 nM
- IC50 [6]: 5 ± 0.3 nM
- IC50 [7]: 70 ± 20 nM
- IC50 [8]: 1770 ± 50 nM

SMILES: C[C@@H]1NC(=O)N[C@@H]1CCCCCC(=O)NCCOCCOCCOCCn1cc(CCCOC(=O)NC(c2ccc(NC(=N)N)cc2)P(=O)(Oc2ccccc2)Oc2ccccc2)nn1 (some centres unmarked) [55b]
- Trypsin-3 kapp [1]: 231 ± 18 M⁻¹ s⁻¹
- Trypsin-3 mechanism of inhibition [1]: Irrev.
- CatG kapp [2]: 301 ± 85 M⁻¹ s⁻¹
- CatG mechanism of inhibition [2]: Irrev.
- IC50 [3, 11]: 1620 ± 90 nM
- IC50 [4, 12]: > 10000 nM
- IC50 [5, 13]: 240 ± 10 nM
- IC50 [6, 14]: 2220 ± 70 nM
- IC50 [7, 15]: 370 ± 90 nM
- IC50 [8, 16]: > 10000 nM

SMILES: C[C@@H]1NC(=O)N[C@@H]1CCCCCC(=O)NCCOCCOCCOCCn1cc(CCCOC(=O)NC(c2ccc(NC(=N)N)cc2)P(=O)(Oc2ccc(Cl)cc2)Oc2ccc(Cl)cc2)nn1 (some centres unmarked) [57b]
- Trypsin-3 kapp [1]: 13 × 10^2 ± 340 M^−1 s^−1
- Trypsin-3 mechanism of inhibition [1]: Irrev.
- CatG kapp [2]: 11 × 10^2 ± 117 M^−1 s^−1
- CatG mechanism of inhibition [2]: reversibly and Rev.
- IC50 [3, 11]: 120 ± 40 nM
- IC50 [4, 12]: > 10000 nM
- IC50 [5, 13]: 180 ± 70 nM
- IC50 [6, 14]: 160 ± 40 nM
- IC50 [7, 15]: 20 ± 0.2 nM
- IC50 [8, 16]: > 10000 nM

SMILES: C[C@@H]1NC(=O)N[C@@H]1CCCCCC(=O)NCCOCCOCCOCCn1cc(CCCOC(=O)NC(Cc2ccc(NC(=N)N)cc2)P(=O)(Oc2ccc(Cl)cc2)Oc2ccc(Cl)cc2)nn1 (some centres unmarked) [54b]
- Ki [1, 9]: 6 ± 0.5 nM
- Ki [1, 10]: 0.8 nM
- Trypsin-3 mechanism of inhibition [1]: * ^d Rev.
- CatG mechanism of inhibition [2]: * ^d Rev.
- IC50 [3]: 120 ± 10 nM
- IC50 [4]: 5600 ± 1060 nM
- IC50 [5]: 8 ± 2 nM
- IC50 [6]: 6 ± 0.1 nM
- IC50 [7]: 110 ± 9 nM
- IC50 [8]: 200 ± 20 nM

SMILES: C#CCCCOC(=O)NC(c1ccc(NC(=N)N)cc1)P(=O)(Oc1ccc(NC(C)=O)cc1)Oc1ccc(NC(C)=O)cc1 (centres unmarked) [38b, Pent-4-yn-1-yl ((bis(4-acetamidophenoxy)phosphoryl)(4-guanidinophenyl)methyl) carbamate]
- Trypsin-3 kapp [1]: 358 ± 6 M⁻¹ s⁻¹
- Trypsin-3 mechanism of inhibition [1]: Irrev.
- CatG kapp [2]: 14 × 10^2 ± 52 M^−1 s^−1
- CatG mechanism of inhibition [2]: Irrev.
- IC50 [3]: 130 ± 10 nM
- IC50 [4]: > 10000 nM
- IC50 [5]: 40 ± 15 nM
- IC50 [6]: 1520 ± 400 nM
- IC50 [7]: 120 ± 20 nM
- IC50 [8]: > 10000 nM
